Common to all, as to assay: NCI tumour cell line growth inhibition, 48 h
In experiment [1] the test system is DLD-1 colon.
The subject of experiment [2] is DMS 114 small cell lung.
Experiment [3] deals with HOP-18 NSCLC.
For experiment [4], the system named is LXFL 529 NSCLC.
For experiment [5], the system named is M19-MEL melanoma.
The subject of experiment [6] is RXF-631 renal.
The test system of experiment [7] is SNB-78 CNS.
The test system of experiment [8] is XF 498 CNS.
Experiment [9] relates to MDA-N.

This passage reports TGI and GI50 results from PubChem BioAssay (NCI).

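Growth conditions: 96-well plates. Treatment: test compound, 48 hours, 5 concentrations. Analysis: linear interpolation between bracketing concentrations; unreached endpoints set to highest concentration. Here, GI50 denotes the concentration required for 50% inhibition of growth. At the TGI there is no net growth.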 Where only a bound is given, the exact number is not on record here.

On to `COC(=O)C(Cc1nc2ccccc2[nH]c1=O)C(=O)C(=O)Nc1ccc([N+](=O)[O-])cc1[N+](=O)[O-]` (stereo not drawn), for which the TGI in experiment [1] was 42 µM; in [2], 35 µM; in experiment [3], 32.1 µM; in experiment [4], 25.5 µM; in experiment [5] it was 33.9 µM; in [6] it was 73.1 µM. The TGI in experiment [7] is over 100 µM; in [8], 34.6 µM.
Take `CC(=O)OC1CC2C(C)(C)C(=O)C=C[C@]2(C)C2CCC3(C)C(=CC(=O)C3c3ccoc3)[C@]12C` (stereo partly drawn): the TGI is 31 µM in experiment [1]; 27.6 µM in experiment [2]; 33.8 µM in experiment [3]; 74.2 µM in [4]; 33.5 µM in experiment [5]; over 100 µM in [7]. Further, the TGI in [8] was 42.8 µM.
On to `CN(C)C=C1C(Cl)=C(C=O)CC(C=O)=C1Cl`, for which the TGI was determined as 20.9 µM in [1]; 26.1 µM in experiment [2]; 26.8 µM in [3]; 4.45 µM in [4]; 29.1 µM in experiment [5].
Turning to `O=C1C=CC(=O)c2cc(Sc3ccccc3)c(=O)ccc21`, the TGI amounted to 39 µM in [1]; 38.5 µM in experiment [2]; 31.8 µM in [3]; 20.3 µM in experiment [4]; 35.3 µM in [5]; 33.4 µM in [9]. For the same molecule, the TGI in experiment [6] came out at 43.4 µM; in [7], 42.6 µM.
For the molecule `CC1=NN(C(=O)c2ccc([N+](=O)[O-])cc2)C(=O)C1N=Nc1ccccc1C(=O)O` (stereo not drawn), the TGI in experiment [1], in experiment [2], in experiment [4], in experiment [5] and in experiment [7] was over 100 µM throughout.
Regarding `CC(=O)[CH-]C(=O)c1ccccc1.CC(=O)[CH-]C(=O)c1ccccc1.CCOCC[O-].CCOCC[O-].[Ti+4]`, in [4], the GI50 is 12.2 µM and the TGI was determined as 29.1 µM. For the same molecule, in experiment [5], the GI50 was 18.9 µM and the TGI stood at 43.4 µM.
Regarding `O=c1c2cccc3cccc(c4n1CCN=4)c32`, the TGI in [1], in [2], in experiment [3], in experiment [4], in experiment [5] and in [7] was over 100 µM in each case. This molecule registered a TGI in experiment [8] of over 100 µM.
On to `CN1C(=O)C(=O)c2cc3c(c4c2c1cc1ccccc14)OCO3`, for which the TGI in experiment [1], in experiment [2], in experiment [3], in experiment [4], in experiment [5] and in experiment [7] was over 100 µM each time. This molecule had a TGI in [8] of over 100 µM.
Molecule `CC1(CCC(=O)OC2CCCCC2)OCCO1` gave a TGI in [9] of over 100 µM.
Same read-out and setting: to `Cc1ccc(C)c(C2NC(=O)c3ccccc3N2)c1` (stereo not drawn) belongs 0.319 µM; to `C=C(Nc1ccc([N+](=O)[O-])cc1[N+](=O)[O-])c1c/c(=N\NC(N)=S)c2ccccc2o1`, over 100 µM; to `Cc1cccc(C)c1NC(=O)Nc1ccc(S(N)(=O)=O)cc1`, over 100 µM.
On to `CN/N=C(\C)C(CN(C)C)C(c1ccccc1)c1c(O)c2ccccc2oc1=O` (stereo not drawn), for which the TGI in experiment [9] is over 100 µM.
Take `CO[C@H](C(=O)[C@@H](O)[C@@H](C)O)[C@@H]1Cc2cc3cc(OC4CC(OC5CC(O)C(O)C(C)O5)C(O)C(C)O4)c(C)c(O)c3c(O)c2C(=O)[C@H]1OC1CC(OC2CC(OC3CC(C)(O)C(O)C(C)O3)C(O)C(C)O2)C(O)C(C)O1` (stereo partly drawn): the GI50 in experiment [3] was 0.558 nM.
As for `O=[N+]([O-])C1Cc2ccccc2OC1c1ccccc1` (stereo not drawn), the TGI in experiment [1] was over 100 µM; in experiment [3], over 100 µM; in [4] it was over 100 µM; in experiment [5], over 100 µM; in experiment [6], over 100 µM; in experiment [7] it was 51.5 µM.
Regarding `CC(C)(C)C1CCC2c3c([nH]c4ccccc34)C3C(=O)N(c4ccccc4)C(=O)C3C2C1` (stereo not drawn), the TGI in experiment [1] was over 100 µM; in experiment [2], 20.7 µM; in experiment [3], 9.73 µM; in [4], 32.3 µM; in experiment [5], 23.7 µM; in experiment [7], 19 µM. In addition, the TGI in experiment [8] amounted to 3 µM.
`CC/C(CC(=O)CCC(=O)Nc1ccccc1[N+](=O)[O-])=N/NC(=O)C[n+]1ccccc1`: the TGI in experiment [3], in experiment [4], in [5], in experiment [6] and in experiment [7] was over 100 µM each time.
As for `C=C[C@@]1(O)CCCC2=C(C(=O)OCC)CC[C@]21C`, the TGI in experiment [1], in experiment [2], in experiment [3], in experiment [4] and in [5] was over 100 µM throughout.
In experiment [9], `O=C(O)C(Cl)(c1ccccc1)c1ccccc1` displayed a TGI of over 100 µM.
With `CC[N+]1(C)CCC(O)(c2ccc(OC)cc2)C(C(=O)c2ccc(OC)cc2)C1` (stereo not drawn), the TGI in [1] is 8.03 µM; in experiment [2], 45.9 µM; in [3] it was 32.6 µM; in experiment [4], 9.76 µM; in experiment [5], 42.4 µM; in [9], 31.9 µM. Moreover, the TGI in experiment [6] worked out at 34.5 µM; in experiment [7], 41.5 µM; in [8] it was 23.3 µM.
Consider `O=S1Nc2c(Cl)cc(Cl)c3c(Cl)cc(Cl)c(c23)N1`, for which the TGI in experiment [1] was 74.8 µM; in experiment [2], over 100 µM; in [3], over 100 µM; in [4], over 100 µM; in experiment [5], over 100 µM; in experiment [6] it was over 100 µM.
In turn, `CCCCCCCCCCCCCCCCCC(=O)OCC(COC(=O)CCCN)OC(=O)CCCN` (stereo not drawn) returned a TGI in [9] of 39.4 µM.
Turning to `C/C=C/CC(C)[C@@H](O)[C@H](NC)C(=O)O` (stereo partly drawn), the TGI in [1], in experiment [2], in [3], in [4] and in experiment [5] was over 100 µM each time.
For the molecule `O=[N+]([O-])CCc1cccc([N+](=O)[O-])c1`, the TGI in [1], in experiment [2], in experiment [3], in [4], in experiment [5] and in [7] was over 100 µM throughout.
